In assay [1] the target is T1, hPTH-2 Receptor (Homo sapiens, UniProt P49190).
T1 construct: expressed in transfected cells; host or cells: LLC-PK1 porcine kidney cells (clone given as hPR2-20, hPR2-22, LLC-P2R-22 or P2R-22)
As to the kind of experiment: cAMP stimulation in LLC-P2R-22 cells (LLC-PK1 stably transfected with hPTH-2 receptor). Conditions: for Emax / EC50 Log M: LLC-P2R-22 cells (hPTH-2 Receptor). It is filed as cell-based. From the text: Stably transfected derivatives of the porcine kidney cell line LLC-PK1, HKRK-B7 (Takasu, H., et al., J. Bone Miner. Res. 14:11-20 (1999)) and hPR2-20, express the human PTH-1 and human PTH-2 receptors respectively. The HKRK-B7 LLC-PK1 cell line expresses the hPTH-1 receptor at ˜1×10^6 receptors/cell (Takasu, H., et al., J. Bone Miner. Res. 14:11-20 (1999)), and the hPR2-22 LLC-PK1 cell line expresses the hPTH-2 receptor at ˜0.8×10^6 receptors/cell (provided by H. Takasu and F. R. Bringhurst, Endocrine Unit, Massachusetts General Hospital).
(§1) Stimulation of cells with peptide analogs was performed in 24-well plates. Cells were rinsed with 0.5 mL of binding buffer and treated with 200 μL of cAMP assay buffer (Dulbecco's modified Eagle's medium containing 2 mM 3-isobutyl-1-methylxanthine, 1 mg/mL bovine serum albumin, 35 mM Hepes-NaOH, pH 7.4) and 100 μL of binding buffer containing varying amounts of peptide analog (final volume=300 μL). The medium was removed after incubation for 1 h at room temperature, and the cells were frozen (−80° C.), lysed with 0.5 mL 50 mM HCl, and refrozen (−80° C.). The cAMP content of the diluted lysate was determined by radioimmunoassay. Where possible, cAMP EC50 and Maximum response values were determined using nonlinear regression (see below).
Intracellular cAMP accumulation may be measured as described by Abou-Samra et al., J. Biol. Chem. 262:1129, 1986) or other methods known to those of skill in the art. Intracellular cAMP is extracted by thawing the cells in 1 ml of 50 mM HCl and analyzed by a specific radioimmunoassay using an anti-cAMP antibody (e.g., Sigma, St. Louis, Mo.). A cAMP analog (2′-O-monosuccinyl-adenosine 3′:5′-cyclic monophosphate tyrosyl methyl ester, obtained from Sigma) which is used as a tracer for cAMP is iodinated by the chloramine T method. Free iodine is removed by adsorbing the iodinated cAMP analog onto a C18 Sep-pak cartridge (Waters, Milford, Mass.). After washing with dH2O, the iodinated cAMP analog is eluted from the Sep-pak Cartridge with 40% acetonitrille (ACN) and 0.1% trifluoroacetic acid (TFA). The iodinated cAMP analog is lyophilized, reconstituted in 1 ml 0.1% TFA, and injected into a C18 reverse phase HPLC column (Waters). The column is equilibrated with 10% ACN in 0.1% TFA, and eluted with gradient of 10-30% ACN in 0.1% TFA. This allows separation of the mono-iodinated cAMP analog from the non-iodinated cAMP analog. The tracer is stable for up to 4 months when stored at −20° C. The standard used for the assay, adenosine 3′:5′-cyclic monophosphate, is purchased from Sigma. Samples (1-10 µl of HCl extracts) or standards (0.04-100 fmol/tube) are diluted in 50 mM Na-acetate (pH 5.5), and acetylated with 10 μl of mixture of triethylamine and acetic anhydride (2:1 vol:vol). After acetylation, cAMP antiserum (100 μl) is added from a stock solution (1:4000) made in PBS (pH 7.4), 5 mM EDTA and 1% normal rabbit serum. The tracer is diluted in PBS (pH 7.4) with 0.1% BSA, and added (20,000 cpm/tube). The assay is incubated at 4° C. overnight. The bound tracer is precipitated by adding 100 μl of goat anti-rabbit antiserum (1:20 in PBS) and 1 ml of 7% polyethyleneglycol (MW 5000-6000), centrifuging at 2000 rpm for 30 min. at 4° C. The supernatant is removed and the bound radioactivity is counted in a gamma-counter (Micromedic). To compute the cAMP data, logit calculations were performed in Excel spreadsheets. Typically, the assay sensitivity is 0.1 fmol/tube, and the standard concentration that displaces 50% of tracer is 5 fmol/tube.
All calculations were performed using Microsoft Excel. Nonlinear regression analysis of cAMP stimulation data was performed using parameters, defined as the Minimum, Maximum, Emax, midpoint (EC50), and slope of the response curve. The predicted response (yp) for a given dose (x) of peptide was calculated using the following equation: yp=Min+[(Max−Min)/(1+(EC50/x)^slope)]. […]

Assay [2] has as its target T2, rat PTH-1 receptor (endogenous, ROS 17/2.8 cells) (Rattus norvegicus, UniProt P25961).
T2 construct: The rat osteoblastic cell line ROS 17/2.8; endogenous in cells; host or cells: ROS 17/2.8 rat osteoblastic cells
T2 sequence (P25961 27-591): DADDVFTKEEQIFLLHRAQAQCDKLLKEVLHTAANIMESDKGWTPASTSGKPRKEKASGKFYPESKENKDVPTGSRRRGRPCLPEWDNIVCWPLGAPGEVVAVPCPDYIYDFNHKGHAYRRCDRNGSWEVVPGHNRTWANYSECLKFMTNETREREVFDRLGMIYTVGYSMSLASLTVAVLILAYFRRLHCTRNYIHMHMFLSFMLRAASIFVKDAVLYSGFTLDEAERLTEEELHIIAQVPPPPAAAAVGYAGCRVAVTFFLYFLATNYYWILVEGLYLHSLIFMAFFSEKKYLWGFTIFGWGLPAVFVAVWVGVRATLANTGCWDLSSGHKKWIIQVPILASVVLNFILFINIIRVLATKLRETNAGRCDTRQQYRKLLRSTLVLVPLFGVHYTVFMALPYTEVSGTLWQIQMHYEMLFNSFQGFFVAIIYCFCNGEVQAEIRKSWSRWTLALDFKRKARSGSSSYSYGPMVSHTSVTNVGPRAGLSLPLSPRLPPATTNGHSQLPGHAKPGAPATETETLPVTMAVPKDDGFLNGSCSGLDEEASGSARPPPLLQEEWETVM
As to the kind of experiment: cAMP response in osteoblastic ROS 17/2.8 cells. The note with it: for Emax: ROS 17/2.8 cells. The format is cell-based. The protocol: The rat osteoblastic cell line ROS 17/2.8 (Majeska, R. J., et al, Endocrinology 107:1494-1503 (1980)) expresses endogenous PTH-1 receptors at levels of 80,000 per cell and the human osteoblastic cell line, SAOS-2, express endogenous PTH-1 receptors at levels of ˜30,000 per cell.
as §1
All calculations were performed using Microsoft Excel. Nonlinear regression analysis of cAMP stimulation data was performed using parameters, defined as the Minimum, Maximum, Emax, midpoint (EC50), and slope of the response curve. The predicted response (yp) for a given dose (x) of peptide was calculated using the following equation: yp=Min+[(Max−Min)/(1+(EC50/x)^slope)]. The initial parameter values were estimated from the primary data, and the Excel “Solver function” was then used to vary the four parameters in order to minimize the differences between the predicted and actual responses (least-squares method) (Bowen, W., & Jerman, J., Trends in Pharmacol. Sci. 16:413-417 (1995)). The statistical significance between two data sets was determined using a one-tailed Student's t-test, assuming unequal variances for the two sets.

Setting [3] is: LLC-PK1 cells expressing PTH-2 receptor, cAMP.

No end group written: not given here.

T1 sequence (P49190 25-550): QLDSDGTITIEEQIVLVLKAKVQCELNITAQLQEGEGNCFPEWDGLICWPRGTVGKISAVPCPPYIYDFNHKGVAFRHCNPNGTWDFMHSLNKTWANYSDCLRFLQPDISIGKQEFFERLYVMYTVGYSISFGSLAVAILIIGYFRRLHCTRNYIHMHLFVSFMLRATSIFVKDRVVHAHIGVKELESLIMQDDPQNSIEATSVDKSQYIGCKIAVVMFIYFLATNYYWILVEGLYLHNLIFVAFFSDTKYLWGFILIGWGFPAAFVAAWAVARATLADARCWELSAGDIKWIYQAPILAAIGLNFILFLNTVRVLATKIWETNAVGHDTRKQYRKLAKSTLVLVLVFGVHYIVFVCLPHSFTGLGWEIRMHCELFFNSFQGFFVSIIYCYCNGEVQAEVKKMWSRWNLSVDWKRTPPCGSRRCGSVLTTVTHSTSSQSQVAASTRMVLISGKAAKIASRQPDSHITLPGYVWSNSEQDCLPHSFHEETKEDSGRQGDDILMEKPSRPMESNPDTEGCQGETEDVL

What is called EC50 is the concentration that produces a half-maximal response. Read a high EC50 as a less potent agent. With `CCCC[C@H](NC(=O)[C@H](CCCNC(=N)N)NC(=O)[C@H](CCC(=O)O)NC(=O)[C@@H](NC(=O)[C@H](CO)NC(=O)[C@H](C)NC(=O)[C@H](CC(C)C)NC(=O)[C@H](Cc1c[nH]cn1)NC(=O)[C@H](CCCCN)NC(=O)CNC(=O)[C@H](CC(C)C)NC(=O)[C@H](CC(N)=O)NC(=O)[C@H](Cc1c[nH]cn1)NC(=O)[C@H](CCCC)NC(=O)[C@H](CC(C)C)NC(=O)[C@H](CCC(N)=O)NC(=O)[C@@H](NC(=O)[C@H](CCC(=O)O)NC(=O)[C@H](CO)NC(=O)[C@@H](NC(=O)[C@H](C)N)C(C)C)[C@@H](C)CC)C(C)C)C(=O)N[C@@H](CCC(N)=O)C(=O)N[C@@H](Cc1c[nH]c2ccccc12)C(=O)N[C@@H](CC(C)C)C(=O)N[C@@H](CCCNC(=N)N)C(=O)N[C@@H](CCCCN)C(=O)N[C@@H](CCCCN)C(=O)N[C@@H](CC(C)C)C(=O)N[C@@H](CCC(N)=O)C(=O)N[C@@H](CC(=O)O)C(=O)N[C@H](C(=O)N[C@@H](Cc1c[nH]cn1)C(=O)N[C@@H](CC(N)=O)C(=O)N[C@@H](Cc1ccc(O)cc1)C(N)=O)C(C)C` [[Nle8, 21, Y34]rPTH(1-34), [Nle^8,21,Tyr^34]-rPTH(1-34)NH2, reference compound], the Emax came to 744 ± 48 picomole/well in assay [1] and 364 ± 6 picomole/well in assay [2]. This molecule also gave an EC50 in assay [2] of 0.316 nM.

With “AVAEIQLMHAR-NH2 [compound 6, AlaValAlaGluIleGlnLeuMetHisAlaArg-amide]”, the “EC50 Log M” value in assay [1] (cAMP) is recorded as “weakly”. In assay [2], this molecule had an Emax of 377 ± 23 picomole/well.

Regarding “AVAEIQLMHARAKH-NH2 [Peptide #1, AlaValAlaGluIleGlnLeuMetHisAlaArgAlaLysHis-amide]”, the Emax in assay [1] is given as 292 ± 100 picomole/well. Moreover, in assay [1] (setting [3]), the “potency relative to PTH(1-34)” value is listed as “four to five orders of magnitude weaker” and the “stimulation of the PTH-2 receptor (in words)” value is given as “active”. Besides, the Emax in assay [2] came to 395 ± 1 picomole/well.

With “AVAEIQLMHARAKHLNSMERVEWLRKKLQDVHNY-NH2 [Peptide #7]”, the Emax in assay [1] is given as 677 picomole/well; in assay [2], 395 ± 1 picomole/well.

“AVSEIQLMHNLGKH-NH2 [native rPTH(1-14), AVSEIQLMHNLGKH, reference compound]”: the “EC50 Log M” value in assay [1] (cAMP) is “inactive”. Moreover, the “stimulation of the PTH-2 receptor (in words)” value in assay [1] (setting [3]) is recorded as “did not stimulate”. Also, in assay [2], the Emax came out at 376 ± 23 picomole/well.

These data come from US8568736B2, “Polypeptide derivatives of parathyroid hormone (PTH)” (The General Hospital Corporation, priority 1999, dated 2013).
